Experimental data reported in patent US20020055702A1, “ULTRASOUND-MEDIATED DRUG DELIVERY” (priority 1998, published 2002).
Entries after “also recorded” stand apart in the source; their conditions may differ.

Test system: corpus cavernosum
Experiment: Intracorporal (cavernosal) pressure in anesthetized male dogs after topical papaverine gel with or without ultrasound
Format: in vivo, dog
Description: The invention has reduced to practice and the principles of the invention have been proven by animal experiments. In these experiments, male dogs, one year old, were anesthetized and a midline abdominal incision was made from the xyphoid process down to the symphisis pubis. Proceeding slightly lateral to the left side of the penis, the corpus cavernosum was exposed. Two butterfly needles were placed into one of the corpus cavernosum, one proximally and one distally. The proximal needle was used for intracorporal pressure recordings, while saline was infused through the distal needle. Controlled intracorporal blood pressure (without applying any drugs) was monitored and recorded while saline was perfused at a rate of 1.7 ml/min. Nude mice skin was used to cover the exposed corpora by stitching it to the dog's incised skin. A gel containing 500 mg papaverine (in a base of polyethylene glycol, methyl paraben, butyl paraben, and butylated hydroxytoluene) was applied on the surface of the nude mice skin followed by the application of an ultrasound probe of 1 MHz, pulse mode 30%, at a power level of 2 w/cm^2, for 20 min. In the control experiments, papaverine was applied topically without any ultrasound application and the manometric pressure was monitored. The resulting manometric pressure was compared to the control pressure by measuring the time needed to reach the peak pressure and the time needed for the cavernosal pressure to decline to baseline.
Perfusion of the corpora with saline (with no ultrasound or papaverine application) was performed for 15 sec at a rate of 1.7 ml/min. creating a pressure ranging from 150-220 cm. H2O. The time needed for this pressure to drop to baseline (0-5) was 30 sec. Perfusion of the corpora with saline after applying ultrasound and papaverine reached the same pressure peak in only 5 sec. Moreover, the pressure declined to baseline in 1.5 minutes.

[1] = papaverine gel plus ultrasound versus baseline (saline only)

COc1ccc(Cc2nccc3cc(OC)c(OC)cc23)cc1OC [papaverine]
time needed to reach the peak pressure (gel with 500 mg papaverine on nude mice skin over corpora, ultrasound 1 MHz, pulse mode 30%, 2 w/cm^2, 20 min, saline perfusion 1.7 ml/min): 5 s
time needed for the cavernosal pressure to decline to baseline (gel with 500 mg papaverine plus ultrasound 1 MHz, pulse mode 30%, 2 w/cm^2, 20 min, saline perfusion 1.7 ml/min): 1.5 min
manometric pressure result compared to saline-only control (papaverine gel on the skin for 20 min, no ultrasound): same results as in the control experiments; also recorded: no greater pressure readings than the no-drug control
manometric pressure result with ultrasound (papaverine gel plus ultrasound treatment): rise in pressure which was consistent with erection
improvement in the period of time established as a baseline for the establishment of erection [1]: 300%
persistence of effects relative to the baseline erection parameters [1]: 500%
